Laboratory results taken from patent publication US12643871B2, “Aryl formamide compound containing chiral sulfur oxide or salt thereof, preparation method, herbicidal composition and use thereof” (Qingdao Kingagroot Chemical Compound Co., Ltd., priority 2019, dated 2026).

How the values were obtained:
Assay in all cases: Weeding effect in post-emergence stage
Type in all cases: in vivo
Conditions in all cases: 250 g/ha; 2 leaf stage; 15 days after application; fresh weight control rate
Abutilon theophrasti = tested on: Abutilon theophrasti
Procedure, shortened: (§1)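 Two-leaf-stage pot plants, spray-tower application at 500/250/125/60/30/15 g/ha with methyl oleate EC synergist; fresh weight control level (0–5) read at 15 days post-treatment, three replicates averaged.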

Echinochloa crusgali = tested on: Echinochloa crusgali
Procedure, shortened: as §1

Amaranthus retroflexus = tested on: Amaranthus retroflexus
Procedure, shortened: as §1

Setaria viridis = tested on: Setaria viridis
Procedure, shortened: as §1

Digitaria sanguinalis = tested on: Digitaria sanguinalis
Procedure, shortened: as §1

Row | Structure (SMILES) | weeding effect in post-emergence stage, activity level (growth control rate), Abutilon theophrasti (Abutilon theophrasti) | weeding effect in post-emergence stage, activity level (growth control rate), Echinochloa crusgali (Echinochloa crusgali) | weeding effect in post-emergence stage, activity level (growth control rate), Amaranthus retroflexus (Amaranthus retroflexus) | weeding effect in post-emergence stage, activity level (growth control rate), Setaria viridis (Setaria viridis) | weeding effect in post-emergence stage, activity level (growth control rate), Digitaria sanguinalis (Digitaria sanguinalis)
1 | COc1c(C(=O)Nc2nnc(C)o2)ccc(C(F)(F)F)c1[S@+]([O-])CCO [Compound 334] | 5 (Level 5: growth control rate is above 85%) | 5 (Level 5: growth control rate is above 85%) | 5 (Level 5: growth control rate is above 85%) | 5 (Level 5: growth control rate is above 85%) | 5 (Level 5: growth control rate is above 85%)
2 | CCC(C)[S@@+]([O-])c1c(C(F)(F)F)ccc(C(=O)Nc2nnco2)c1F (some centres unmarked) [Compound 576] | 5 (Level 5: growth control rate is above 85%) | 5 (Level 5: growth control rate is above 85%) | 5 (Level 5: growth control rate is above 85%) | 5 (Level 5: growth control rate is above 85%) | 5 (Level 5: growth control rate is above 85%)
3 | CCC[S@@+]([O-])c1c(C(F)(F)F)ccc(C(=O)Nc2nnc(C)o2)c1OCC [Compound 532] | 5 (Level 5: growth control rate is above 85%) | 5 (Level 5: growth control rate is above 85%) | 5 (Level 5: growth control rate is above 85%) | 5 (Level 5: growth control rate is above 85%) | 5 (Level 5: growth control rate is above 85%)
4 | CSC[S@+]([O-])c1c(C(F)(F)F)ccc(C(=O)Nc2nnc(C)o2)c1F [Compound 203] | 5 (Level 5: growth control rate is above 85%) | 5 (Level 5: growth control rate is above 85%) | 5 (Level 5: growth control rate is above 85%) | 5 (Level 5: growth control rate is above 85%) | 5 (Level 5: growth control rate is above 85%)
5 | CCCOc1c(C(=O)Nc2nnc(C)o2)ccc(C(F)(F)F)c1[S@+]([O-])CCC [Compound 533] | 5 (Level 5: growth control rate is above 85%) | 5 (Level 5: growth control rate is above 85%) | 5 (Level 5: growth control rate is above 85%) | 5 (Level 5: growth control rate is above 85%) | 5 (Level 5: growth control rate is above 85%)
6 | CC[S@@+]([O-])c1c(C(F)(F)F)ccc(C(=O)Nc2nnco2)c1F [Compound 574] | 5 (Level 5: growth control rate is above 85%) | 5 (Level 5: growth control rate is above 85%) | 5 (Level 5: growth control rate is above 85%) | 5 (Level 5: growth control rate is above 85%) | 5 (Level 5: growth control rate is above 85%)
7 | CC#CC[S@@+]([O-])c1c(C(F)(F)F)ccc(C(=O)Nc2nnc(C)o2)c1F [Compound 25] | 5 (Level 5: growth control rate is above 85%) | 5 (Level 5: growth control rate is above 85%) | 5 (Level 5: growth control rate is above 85%) | 5 (Level 5: growth control rate is above 85%) | 5 (Level 5: growth control rate is above 85%)
8 | CCC[S@@+]([O-])c1c(C(F)(F)F)ccc(C(=O)Nc2nnc(C)o2)c1OC [Compound 531] | 5 (Level 5: growth control rate is above 85%) | 5 (Level 5: growth control rate is above 85%) | 5 (Level 5: growth control rate is above 85%) | 5 (Level 5: growth control rate is above 85%) | 5 (Level 5: growth control rate is above 85%)
9 | COc1c(C(=O)Nc2nnc(C)o2)ccc(C(F)(F)F)c1[S@@+]([O-])C(F)(F)C(F)(F)C(F)(F)F [Compound 328] | 5 (Level 5: growth control rate is above 85%) | 5 (Level 5: growth control rate is above 85%) | 5 (Level 5: growth control rate is above 85%) | 5 (Level 5: growth control rate is above 85%) | 5 (Level 5: growth control rate is above 85%)
10 | Cc1nnc(NC(=O)c2ccc(C(F)(F)F)c([S@+]([O-])C(C)(C)C)c2F)o1 [Compound 7] | 5 (Level 5: growth control rate is above 85%) | 5 (Level 5: growth control rate is above 85%) | 5 (Level 5: growth control rate is above 85%) | 4 (Level 4: growth control rate is greater than or equal to 60% and less than 85%) | 4 (Level 4: growth control rate is greater than or equal to 60% and less than 85%)
11 | C#CCC[S@@+]([O-])c1c(C(F)(F)F)ccc(C(=O)Nc2nnc(C)o2)c1F [Compound 24] | 5 (Level 5: growth control rate is above 85%) | 5 (Level 5: growth control rate is above 85%) | 5 (Level 5: growth control rate is above 85%) | 5 (Level 5: growth control rate is above 85%) | 5 (Level 5: growth control rate is above 85%)
12 | COc1c(C(=O)Nc2nnc(C)o2)ccc(C(F)(F)F)c1[S@+]([O-])CC(F)F [Compound 323] | 5 (Level 5: growth control rate is above 85%) | 5 (Level 5: growth control rate is above 85%) | 5 (Level 5: growth control rate is above 85%) | 5 (Level 5: growth control rate is above 85%) | 5 (Level 5: growth control rate is above 85%)
13 | CC[S@@+]([O-])c1c(C(F)(F)F)ccc(C(=O)Nc2nnco2)c1OC [Compound 423] | 5 (Level 5: growth control rate is above 85%) | 5 (Level 5: growth control rate is above 85%) | 5 (Level 5: growth control rate is above 85%) | 5 (Level 5: growth control rate is above 85%) | 5 (Level 5: growth control rate is above 85%)
14 | CC[S+]([O-])c1c(C(F)(F)F)ccc(C(=O)N(c2nnc(C)o2)C(C)OC(=O)OC)c1OC (mixture of isomers) [Compound 421] | 5 (Level 5: growth control rate is above 85%) | 5 (Level 5: growth control rate is above 85%) | 5 (Level 5: growth control rate is above 85%) | 5 (Level 5: growth control rate is above 85%) | 5 (Level 5: growth control rate is above 85%)
15 | Cc1nnc(NC(=O)c2ccc(C(F)(F)F)c([S@+]([O-])CC(C)(C)C)c2F)o1 [Compound 11] | 5 (Level 5: growth control rate is above 85%) | 5 (Level 5: growth control rate is above 85%) | 5 (Level 5: growth control rate is above 85%) | 5 (Level 5: growth control rate is above 85%) | 5 (Level 5: growth control rate is above 85%)
16 | CCOCC[S@@+]([O-])c1c(C(F)(F)F)ccc(C(=O)Nc2nnc(C)o2)c1F [Compound 73] | 5 (Level 5: growth control rate is above 85%) | 5 (Level 5: growth control rate is above 85%) | 5 (Level 5: growth control rate is above 85%) | 5 (Level 5: growth control rate is above 85%) | 5 (Level 5: growth control rate is above 85%)
